The results in this text go back to patent publication US9642821B2, “MiR-182 in the diagnosis and treatment of cancer” (Dana-Farber Cancer Institute, Inc., priority 2010, dated 2017).

What all share (format): cell-based
Series [1] has as its system BRCA1. Nature of the series: BRCA1 immunoblot in MDA-MB231 cells. The following applies: MDA-MB231 cells overexpressing miR-182 vs miR-scr. The procedure:
(§1) In each experiment, where Western blot analysis was done, a fraction of 0.2−0.5×10^6 cells was taken out at day, 3 or 4, post-transfection. Breast cancer cell lines were collected from 6 well tissue culture plates (0.5-1×10^6 cells). Cells lysates were prepared in RIPA buffer (150 mM NaCl, 1% NP-40, 0.5% sodium deoxycholate, 0.1% SDS, 50 mM Tris, pH 8.0). Lysates of 0.1×10^6 cells of each sample plus loading buffer were loaded on 8% SDS-PAGE gels, semi-dry transferred on nitrocellulose membrane, and probed with anti-BRCA1 antibody at a 1:500 dilution (CALBIOCHEM, MS110) and anti-tubulin antibody at a 1:10,000 dilution (Sigma, Clone B-5-1-2).

The next series concerns U2OS cells. Nature of the series: G2/M checkpoint, phospho-H3 flow cytometry after IR. The following applies: 5 Gy IR, nocodazole, P-H3 staining. The procedure: U2OS cells (0.35×10^6 cells/well) were transfected with 10 nM control mimic or miR-182 mimic and, in rescue experiments, co-transfected with 1 μg of BRCA1 (lacking 3′UTR) expression construct using Lipofectamine 2000. After 2 days, cells were seeded into the wells of 12-well tissue culture plates, incubated overnight, irradiated (5 Gy) and released in nocadozole (200 ng/ml) containing media after 2 hours. The next day the cells were stained with primary Phospho-H3 (Ser10) antibodies 1:100 dilution (Upstate Biotechnology, Lake Placid, N.Y.) and FITC-labeled secondary antibodies 1:50 dilution (Santa Cruz Biotechnology, Santa Cruz, Calif.) and analyzed by flow cytometry.
A general note: A flow cytometer gives signals particle by particle.

In series [2] the test system is MDA-MB231 cells. Nature of the series: Single-cell gel electrophoresis (comet) assay after irradiation, MDA-MB231. To be noted: MDA-MB231, 18 h repair, vs control mimic. How it is done:
21NT cells (0.35×10^6 cells/well in 6 well tissue culture plate) were transfected with 100 nM control or miR-182 antagomir expression vector (Ambion, Austin, Tex.) whereas MDA-MB231 (0.35×10^6 cells/well on 6 well plate) were transfected with 10 nM control or miR-182 mimic expression vector (Ambion, Austin, Tex.) using Lipofectamine 2000. At day 3 after transfection, cells were irradiated (0, 2, 4 and 6 Gy) and allowed to recover for 18 hours prior to analysis. The single cell comet assays was carried out according manufacturer's instructions (Trevigen, Gaithersburg, Md.). Briefly, treated or untreated cells were collected, resuspended in ice cold PBS at 10^5 cells/ml, mixed with low-melting point agarose (1:10 ratio) and spread on frosted glass slides. After the agarose solidified, the slides were placed in lysis buffer and then in alkaline solutions. […] Nuclei were visualized using epifluorescent illumination on a Zeiss microscope and images analyzed with National Institutes of Health ImageJ software (rsbweb.nih.gov/ij/). DNA damage was quantified for 70-100 cells for each experimental condition by determining the DNA in the comet tail using the software Comet Score (TriTek, Sumerduck, Va.).

The test system of series [3] is MDA-MB231 cells. Nature of the series: Clonogenic cell survival assay after γ-radiation, MDA-MB231. To be noted: MDA-MB231, vs control mimic. The procedure:
Hela cells (0.35×10^6 cells/well), MDA-MB231 cells (0.4×10^6 cells/well), 21NT cells (0.5×10^6) were seeded overnight and transfected with 10 nM of miRNA mimics or antagomirs (Ambion, Austin, Tex.) using Lipofectamine 2000. In rescue experiments, miR-182 or control mimics were co-transfected with 1 μg/ml BRCA1 (pcDNA3.1 vector). After 2 days, 1000 cells in 4 ml DMEM media (10% FBS v/v) were seeded on 6 cm tissue culture dishes in four replicates and allowed to attach overnight before treatment. PARP inhibitors (4-amino-1,8-naphthalimide (Sigma, St. Louis, Mo.) or ABT-888 (ChemieTek, Indianapolis, Ind.) in DMSO) were added to the growth media at indicated concentrations. Irradiated cells as well as cells in the presence of PARP inhibitor were allowed to form colonies for 14 days. For evaluation, formed colonies were stained with crystal violet and surviving colonies containing >50 cells were counted. Plating efficiency was 30-50%.

For series [4], the system named is BRCA1. Nature of the series: BRCA1 expression after ectopic miRNA overexpression in HL60 cells (immunoblot, qPCR). The procedure:
Analysis of the miRNAs of the miR-183 cluster was conducted using qPCR using the TaqMan MicroRNA Assay from Applied Biosystems as per the manufacturer's instructions and normalized to RNU6B snRNA. Analysis of mRNA expression was carried out with qPCR using the SYBR Green master mix (Applied Biosystems, Foster City, Calif.) according to the manufacture's manual and the BioRad iCycler. The mRNA (1 μg) was reverse transcribed with 50 ng random primers using 100 U moloney murine leukemia virus (MMLV) reverse transcriptase (Epicentre, Madison, Wis.) according to the manufacturer's manual. Results were normalized to 5SrRNA or GAPDH.
as §1
(In western blotting, separated proteins are transferred to a membrane and probed.)

The next series has as its system U2OS-DR-GFP cells. Nature of the series: Homologous recombination (HR) DR-GFP reporter assay. To be noted: U2OS DR-GFP stably expressing miR-182, I-SceI. The procedure: U2OS-DR-GFP cells, with a single, stably integrated copy of the transgenic reporter DR-GFP were seeded (0.35×10^6 cells/well) into the wells of a 6-well tissue culture plate, transfected with a control and an miR-182 expression construct. Cells were selected for 4 weeks with 100 μg/ml of puromycin. mir-182 overexpression was confirmed with qPCR (FIG. 3C). HR assay was done as described (Chowdhury et al., Mol. Cell, 31:33-46 (2008)). Briefly, 2×10^5 cells plated overnight in 24-well plates were transfected with 0.8 μg of I-SceI expression plasmid (pCBA Sce) using Lipofectamine 2000. 2 days later, GFP positive cells were assayed by FACScan flow cytometer.
(In general: A reporter such as luciferase makes a cellular process visible.)

Series [5] has as its system BRCA1 3′UTR-luciferase reporter. Nature of the series: Luciferase reporter assay with BRCA1 3′UTR in HeLa cells. The procedure: The wild type (WT) and mutated (M) miR-182 recognition elements of 3′UTR-BRCA1 were annealed (see below) and cloned in expression vector, pMIR-REPORT (Ambion, Austin, Tex.) downstream to Firefly Luciferase.
Hela cells were co-transfected in a 24 well tissue culture plate with 10 nM control mimic (Ambion, Austin, Tex.) or miR-182 mimic (Ambion, Austin, Tex.), 0.2 μg 3′UTR-BRCA1-WT or 3′UTR-BRCA1-M, and 0.2 μg Renilla luciferase in pRL-TK (Promega, Madison, Wis.) vector using lipofectamine 2000 as described in manufacture's manual. Cells were harvested on day 2 and the luciferase activity was assayed with the Dual-Luciferase Assay System (Promega, Madison, Wis.) and a Synergy HT microplate reader (BioTek, Winooski, Vt.) as described in manufacture's manual.

Entries after “also recorded” stand apart in the source; their conditions may differ.

“miR-182: microRNA with sequence 5′ UUUGGCAAUGGUAGAACUCACACU 3′ (SEQ ID NO:1); given as mimic (Ambion) or expression vector (UUUGGCAAUGGUAGAACUCACACU; listed as RNA, chemistry not given here; listed as Homo sapiens)”: the BRCA1 protein level result in the series with BRCA1 [1] was “sharply reduced; also recorded: lower levels; also recorded: diminish BRCA1 levels; also recorded: down regulates BRCA1 protein levels”; with BRCA1 [4] (HL60 cells transiently transfected with expression vectors, Western blot), “significant decrease”. Further, the “mitotic cells post-DNA damage (G2/M checkpoint)” value in the series on U2OS cells is recorded as “significant increase in mitotic cells; also recorded: impacts the G2/M checkpoint”. The “residual DNA damage (unrepaired DSBs) after irradiation” value with MDA-MB231 cells [2] is given as “significantly higher residual DNA damage”; in the series on MDA-MB231 cells [2] (listed as 182 mimic), “significantly altered”. Besides, the “sensitivity to IR (clonogenic survival)” value in the series with MDA-MB231 cells [3] was “significantly more sensitive”; in the series with MDA-MB231 cells [3] (listed as miR-182 mimic), “significantly enhanced sensitivity to IR”. Moreover, the “BRCA1 mRNA level” value in the series on BRCA1 [4] (ectopic overexpression, data not shown) is reported as “moderate decrease”. Moreover, the “HR-mediated DSB repair efficiency (GFP positive cells)” value in the series on U2OS-DR-GFP cells is listed as “significantly reduced HR-efficiency; also recorded: impedes homologous recombination-mediated repair”. For the same substance, the “effect of miR-182 on luciferase with mutated miR-182 recognition sites (BRCA1-M reporter)” value in series [5] is “significantly reduced the effect; also recorded: rescued this suppression”. For the same substance, the “reduction of luciferase activity, wildtype BRCA1-reporter” value in series [5] (10 nM mimic, vs control mimic) is on record as “more than 2 fold”. Also, the “luciferase activity of BRCA1-WT reporter” value in series [5] (normalized to Renilla, p<0.001) is listed as “suppressed luciferase activity”.
